US20220047698A1, “SYNTHETIC INNATE IMMUNE RECEPTOR LIGANDS AND USES THEREOF” (ALBERTA RESEARCH CHEMICALS INC., priority 2018, published 2022)

Tested on: BALB/c mice
Assay: Mouse immunization with OVA plus adjuvant combinations, serum IgG1 / IgG2a
Format: in vivo
Details: mice vaccinated with OVA and adjuvant combinations, subcutaneous, booster Day 21; for serum IgG1: FIG. 2; for serum IgG2a: FIG. 3
Experimental: Ability of compounds as vaccine adjuvants are assessed through their ability to induce robust immune responses in mice when administered along with a standard experimental antigen, OVA peptide, and compared the balance of Th1 and Th2 responses from their IgG1a and IgG2a responses as well as the cytokine production in mice. It is very common to see the antibody responses to many adjuvants but it is important to see the cellular responses as well which are used as therapeutic vaccines such as cancer vaccines.
Mouse Immunization: Groups of BALB/c mice were immunized with vaccine formulations wherein OVA (50 μg/dose) is combined with PZ (10 μg/dose), PIC (10 μg/dose), and adjuvant alone or in combination (20 μg/dose). In Trial 1, mice (n=8 per group) were immunized subcutaneously with 100 μl total volume with OVA alone, OVA+PZ/PI/52, OVA+52, or saline. In Trial 2, mice (n=8 per group) were immunized subcutaneously with 200 μl total volume with OVA alone, OVA+52, OVA+PZ+PIC, OVA+52+PZ+PI, OVA+(63+97) nanoparticles, or OVA+(52+63+97)nanoparticles, where the number refers to the compound number. The volume was doubled in Trial 2 because the (63+97)Np's were viscous and required more buffer to be easily injected. Mice received a booster immunization on Day 21. Blood was obtained on day 21, day 35 for both trials and 48 for trial 1 only. Mice were euthanized with isofluorane on Day 35 in Trial 2 and Day 48 in Trial 1. Spleens were isolated on day of euthanization.

| SMILES | serum IgG1 | serum IgG2a |
| --- | --- | --- |
| CSCC[C@H](NC=O)C(=O)N[C@@H](CC(C)C)C(=O)N[C@@H](Cc1ccccc1)C(=O)NCCNC(=O)[C@H](CCCCN)NC(=O)[C@H](CCCCN)NC(=O)[C@H](CCCCN)NC(=O)[C@H](CO)NC(=O)[C@H](CSCC(COC(=O)CCCCCCCCCCCC(C)C)OC(=O)CCCCCCCCCCCC(C)C)NC(=O)CCCCCCCCCCCC(C)C.Cl.Cl.Cl (stereo partly drawn) [Compound 52, TrilipoCys-Ser-Lys-Lys-Lys-NH—CH2-CH2-NH-F-L-Mf] | significant increased production | significant increased production |
| CC(=O)N[C@@H]1[C@@H](O[C@H](C)C(=O)N[C@@H](C)C(=O)N[C@@H](CCC(=O)O)C(N)=O)[C@H](O)[C@@H](COC(=O)CCCCCCCCCCCC(C)C)O[C@H]1O [Compound 63, (S)-4-((S)-2-((R)-2-(((2R,3R,4R,5S,6R)-3-acetamido-2,5-dihydroxy-6-(((13-methyltetradecanoyl)oxy)methyl)tetrahydro-2H-pyran-4-yl)oxy)propanamido)propanamido)-5-amino-5-oxopentanoic acid] | significant increased production | significant increased production |
